Reference: the NIST ThermoML archive (doi:10.1016/j.fluid.2012.01.014)
Numbers after ± are expanded uncertainties.

Experiment: cn = amount concentration of the nth substance listed, in mol/dm3
Settings: Ring tensiometer

CCCCCCCCCCCCCCCC[n+]1ccccc1.[Br-] [1-hexadecylpyridinium bromide] + O
surface tension liquid-gas [mN/m]
Settings | 293 K | 303 K | 313 K
c1 = 1e-08 | 72.8 ± 1.3 | 71.2 ± 1.3 | 69.6 ± 1.3
c1 = 5.01e-08 | 72.8 ± 1.3 | 71.19 ± 1.3 | 69.59 ± 1.3
c1 = 1e-07 | 72.75 ± 1.3 | 71.18 ± 1.3 | 69.57 ± 1.3
c1 = 5.01e-07 | 72.7 ± 1.3 | 71.13 ± 1.3 | 69.54 ± 1.3
c1 = 1e-06 | 72.6 ± 1.3 | 71.07 ± 1.3 | 69.49 ± 1.3
c1 = 5.01e-06 | 71.7 ± 1.3 | 70.56 ± 1.3 | 69.04 ± 1.3
c1 = 1e-05 | 71.1 ± 1.3 | 69.97 ± 1.3 | 68.52 ± 1.3
c1 = 2e-05 | 69.8 ± 1.3 | 68.91 ± 1.3 | 67.58 ± 1.3
c1 = 5.01e-05 | 67.4 ± 1.3 | 66.38 ± 1.3 | 65.26 ± 1.3
c1 = 0.0001 | 63 ± 1.2 | 61.8 ± 1.2 | 60.65 ± 1.2
c1 = 0.0002 | 54.6 ± 1.2 | 53.41 ± 1.2 | 53.01 ± 1.2
c1 = 0.000398 | 45.5 ± 1.1 | 44.73 ± 1.1 | 44.56 ± 1.1
c1 = 0.000631 | 44.8 ± 1.1 | 44.03 ± 1.1 | 43.87 ± 1.1
c1 = 0.000794 | 45.3 ± 1.1 | 44.04 ± 1.1 | 43.86 ± 1.1
c1 = 0.001 | 44.4 ± 1.1 | 43.92 ± 1.1 | 43.75 ± 1.1
c1 = 0.002 | 44 ± 1.1 | 43.81 ± 1.1 | 43.68 ± 1.1
c1 = 0.00398 | 44.5 ± 1.1 | 43.79 ± 1.1 | 43.64 ± 1.1
c1 = 0.00603 | 44.1 ± 1.1 | 43.62 ± 1.1 | 43.53 ± 1.1
c1 = 0.00794 | 43.2 ± 1.1 | 42.83 ± 1.1 | 42.74 ± 1.1
c1 = 0.01 | 43.2 ± 1.1 | 42.75 ± 1.1 | 42.65 ± 1.1
c1 = 0.0302 | 39.4 ± 1.1 | 38.89 ± 1.1 | 38.9 ± 1.1
c1 = 0.0603 | 38.8 ± 1.1 | 38.02 ± 1.1 | 37.95 ± 1.1

CCCCCCCCCCCCCCCC[N+](C)(C)C.[Br-] [N,N,N-trimethyl-1-hexadecanaminium bromide] + O
surface tension liquid-gas [mN/m]
Settings | 293 K | 303 K | 313 K
c1 = 1e-08 | 72.79 ± 1.3 | 71.2 ± 1.3 | 69.6 ± 1.3
c1 = 1e-07 | 72.78 ± 1.3 | 71.19 ± 1.3 | 69.59 ± 1.3
c1 = 5.01e-07 | 72.73 ± 1.3 | 71.16 ± 1.3 | 69.56 ± 1.3
c1 = 1e-06 | 72.66 ± 1.3 | 71.11 ± 1.3 | 69.52 ± 1.3
c1 = 2e-06 | 72.54 ± 1.3 | 71.03 ± 1.3 | 69.45 ± 1.3
c1 = 3.98e-06 | 72.31 ± 1.3 | 70.86 ± 1.3 | 69.3 ± 1.3
c1 = 6.31e-06 | 72.1 ± 1.3 | 70.69 ± 1.3 | 69.16 ± 1.3
c1 = 7.94e-06 | 71.91 ± 1.3 | 70.53 ± 1.3 | 69.02 ± 1.3
c1 = 1e-05 | 71.73 ± 1.3 | 70.37 ± 1.3 | 68.88 ± 1.3
c1 = 2e-05 | 70.97 ± 1.3 | 69.62 ± 1.3 | 68.22 ± 1.3
c1 = 3.02e-05 | 70.31 ± 1.3 | 68.93 ± 1.3 | 67.61 ± 1.3
c1 = 3.98e-05 | 69.72 ± 1.3 | 68.3 ± 1.3 | 67.04 ± 1.3
c1 = 5.01e-05 | 69.2 ± 1.3 | 67.72 ± 1.3 | 66.51 ± 1.3
c1 = 6.03e-05 | 68.81 ± 1.3 | 67.18 ± 1.3 | 66.01 ± 1.3
c1 = 7.08e-05 | 68.48 ± 1.3 | 66.67 ± 1.3 | 65.54 ± 1.3
c1 = 7.94e-05 | 68.06 ± 1.3 | 66.2 ± 1.3 | 65.1 ± 1.3
c1 = 9.12e-05 | 67.15 ± 1.3 | 65.75 ± 1.3 | 64.68 ± 1.3
c1 = 0.0001 | 66.41 ± 1.3 | 65.32 ± 1.3 | 64.28 ± 1.2
c1 = 0.0002 | 60.86 ± 1.2 | 60.52 ± 1.2 | 59.45 ± 1.2
c1 = 0.000302 | 54.74 ± 1.2 | 54.35 ± 1.2 | 53.95 ± 1.2
c1 = 0.000398 | 50.39 ± 1.2 | 50.02 ± 1.2 | 49.72 ± 1.2
c1 = 0.000501 | 47.02 ± 1.1 | 46.83 ± 1.1 | 46.15 ± 1.1
c1 = 0.000603 | 44.27 ± 1.1 | 44.12 ± 1.1 | 43.53 ± 1.1
c1 = 0.000708 | 41.94 ± 1.1 | 41.82 ± 1.1 | 41.22 ± 1.1
c1 = 0.000794 | 39.92 ± 1.1 | 39.75 ± 1.1 | 39 ± 1.1
c1 = 0.000891 | 38.15 ± 1.1 | 38.01 ± 1.1 | 37.25 ± 1.1
c1 = 0.000912 | 37.9 ± 1.1 | 37.8 ± 1.1 | 37 ± 1.1
c1 = 0.001 | 37.9 ± 1.1 | 37.2 ± 1.1 | 36.4 ± 1.1
c1 = 0.002 | 37.8 ± 1.1 | 37.14 ± 1.1 | 36.4 ± 1.1

CCCCCCCCCCCC[N+](C)(C)Cc1ccccc1.[Br-] [benzenemethanaminium, N-dodecyl-N,N-dimethyl, bromide] + O
surface tension liquid-gas [mN/m]
Settings | 293 K | 303 K | 313 K
c1 = 1e-07 | 72.4 ± 1.3 | 71.18 ± 1.3 | 69.58 ± 1.3
c1 = 5.01e-07 | 72.3 ± 1.3 | 71.09 ± 1.3 | 69.49 ± 1.3
c1 = 1e-06 | 71.6 ± 1.3 | 70.98 ± 1.3 | 69.38 ± 1.3
c1 = 5.01e-06 | 70.7 ± 1.3 | 70.22 ± 1.3 | 68.59 ± 1.3
c1 = 1e-05 | 69.6 ± 1.3 | 69.44 ± 1.3 | 67.78 ± 1.3
c1 = 5.01e-05 | 66.8 ± 1.3 | 65.88 ± 1.3 | 64.1 ± 1.2
c1 = 0.0001 | 64.3 ± 1.3 | 63.66 ± 1.2 | 61.81 ± 1.2
c1 = 0.000316 | 55.3 ± 1.2 | 54.19 ± 1.2 | 53.4 ± 1.2
c1 = 0.000501 | 51.7 ± 1.2 | 50.07 ± 1.2 | 49.15 ± 1.2
c1 = 0.001 | 46.2 ± 1.2 | 44.48 ± 1.1 | 43.37 ± 1.1
c1 = 0.002 | 41.1 ± 1.1 | 40 ± 1.1 | 38.93 ± 1.1
c1 = 0.00316 | 37.8 ± 1.1 | 36.73 ± 1.1 | 35.76 ± 1.1
c1 = 0.00398 | 36 ± 1.1 | 34.82 ± 1.1 | 33.92 ± 1.1
c1 = 0.00501 | 34.5 ± 1.1 | 33.11 ± 1.1 | 32.67 ± 1.1
c1 = 0.00708 | 34.5 ± 1.1 | 33.11 ± 1.1 | 32.67 ± 1.1
c1 = 0.01 | 34.4 ± 1.1 | 33.11 ± 1.1 | 32.67 ± 1.1

CCCCCCCCCCCC[N+](C)(C)CC.[Br-] [dodecyl ethyl dimethylammonium bromide] + O
surface tension liquid-gas [mN/m]
Settings | 293 K | 303 K | 313 K
c1 = 1e-07 | 72.6 ± 1.3 | 71.2 ± 1.3 | 69.6 ± 1.3
c1 = 5.01e-07 | 72.4 ± 1.3 | 71.19 ± 1.3 | 69.6 ± 1.3
c1 = 1e-06 | 72.3 ± 1.3 | 71.19 ± 1.3 | 69.59 ± 1.3
c1 = 5.01e-06 | 72.2 ± 1.3 | 71.13 ± 1.3 | 69.56 ± 1.3
c1 = 1e-05 | 71.7 ± 1.3 | 71.06 ± 1.3 | 69.53 ± 1.3
c1 = 5.01e-05 | 70.7 ± 1.3 | 70.54 ± 1.3 | 69.24 ± 1.3
c1 = 0.0001 | 70 ± 1.3 | 69.94 ± 1.3 | 68.89 ± 1.3
c1 = 0.000501 | 67.8 ± 1.3 | 66.59 ± 1.3 | 65.63 ± 1.3
c1 = 0.001 | 65.1 ± 1.3 | 63.91 ± 1.2 | 62.94 ± 1.2
c1 = 0.002 | 60.3 ± 1.2 | 60.54 ± 1.2 | 59.58 ± 1.2
c1 = 0.00316 | 56.4 ± 1.2 | 56.13 ± 1.2 | 55.17 ± 1.2
c1 = 0.00398 | 52.4 ± 1.2 | 52.36 ± 1.2 | 51.87 ± 1.2
c1 = 0.00501 | 50 ± 1.2 | 49.44 ± 1.2 | 48.85 ± 1.2
c1 = 0.00631 | 47.3 ± 1.2 | 46.78 ± 1.1 | 46.39 ± 1.1
c1 = 0.00794 | 44.3 ± 1.1 | 43.72 ± 1.1 | 43.12 ± 1.1
c1 = 0.00891 | 42.8 ± 1.1 | 42.12 ± 1.1 | 41.71 ± 1.1
c1 = 0.01 | 41.5 ± 1.1 | 40.73 ± 1.1 | 39.82 ± 1.1
c1 = 0.0251 | 40.9 ± 1.1 | 40.01 ± 1.1 | 39.43 ± 1.1
c1 = 0.0501 | 40.6 ± 1.1 | 39.82 ± 1.1 | 38.75 ± 1.1
c1 = 0.1 | 39.4 ± 1.1 | 39 ± 1.1 | 38.24 ± 1.1

CCCCCCCCCCCCOS(=O)(=O)[O-].[Na+] [sodium dodecyl sulfate] + O
surface tension liquid-gas [mN/m]
Settings | 293 K | 303 K | 313 K
c1 = 1e-08 | 72.8 ± 1.3 | 71.2 ± 1.3 | 69.6 ± 1.3
c1 = 1e-07 | 72.9 ± 1.3 | 71.19 ± 1.3 | 69.6 ± 1.3
c1 = 1e-06 | 72.79 ± 1.3 | 71.17 ± 1.3 | 69.58 ± 1.3
c1 = 3.98e-06 | 72.78 ± 1.3 | 71.15 ± 1.3 | 69.56 ± 1.3
c1 = 7.94e-06 | 72.76 ± 1.3 | 71.14 ± 1.3 | 69.53 ± 1.3
c1 = 1e-05 | 72.75 ± 1.3 | 71 ± 1.3 | 69.51 ± 1.3
c1 = 5.01e-05 | 72.69 ± 1.3 | 70.81 ± 1.3 | 69.48 ± 1.3
c1 = 6.31e-05 | 72.46 ± 1.3 | 70.59 ± 1.3 | 69.27 ± 1.3
c1 = 0.0001 | 72.24 ± 1.3 | 70.01 ± 1.3 | 69.05 ± 1.3
c1 = 0.0002 | 71.62 ± 1.3 | 69.29 ± 1.3 | 67.85 ± 1.3
c1 = 0.000631 | 68.1 ± 1.3 | 66.62 ± 1.3 | 65.14 ± 1.3
c1 = 0.000794 | 66.25 ± 1.3 | 65.21 ± 1.3 | 64.01 ± 1.2
c1 = 0.001 | 64.32 ± 1.2 | 63.87 ± 1.2 | 62.73 ± 1.2
c1 = 0.002 | 57.43 ± 1.2 | 57.02 ± 1.2 | 55.94 ± 1.2
c1 = 0.00398 | 49.72 ± 1.2 | 49.52 ± 1.2 | 48.45 ± 1.2
c1 = 0.00631 | 43.37 ± 1.1 | 42.98 ± 1.1 | 41.7 ± 1.1
c1 = 0.00794 | 38.88 ± 1.1 | 38.34 ± 1.1 | 36.91 ± 1.1
c1 = 0.00832 | 38.4 ± 1.1 | 38.21 ± 1.1 | 36.42 ± 1.1
c1 = 0.01 | 38.4 ± 1.1 | 38.21 ± 1.1 | 36.42 ± 1.1
